Values quoted from earlier work in patent US10668130B2, “Formulation for targeting cancer in humans and canines using chlorotoxin” (priority 2017, dated 2020).

Assays:
CFTR Cl— channels = CFTR Cl— channels (Homo sapiens, UniProt P13569); settings: sub-micromolar concentrations
[1] = test system: outwardly rectifying Cl— channels; settings: planar lipid bilayers
[2] = test system: Ca2+-activated Cl— channels; settings: sub-micromolar concentrations
[3] = test system: volume-regulated Cl— channels; settings: sub-micromolar concentrations

Sequence of CFTR Cl— channels (P13569 whole entry): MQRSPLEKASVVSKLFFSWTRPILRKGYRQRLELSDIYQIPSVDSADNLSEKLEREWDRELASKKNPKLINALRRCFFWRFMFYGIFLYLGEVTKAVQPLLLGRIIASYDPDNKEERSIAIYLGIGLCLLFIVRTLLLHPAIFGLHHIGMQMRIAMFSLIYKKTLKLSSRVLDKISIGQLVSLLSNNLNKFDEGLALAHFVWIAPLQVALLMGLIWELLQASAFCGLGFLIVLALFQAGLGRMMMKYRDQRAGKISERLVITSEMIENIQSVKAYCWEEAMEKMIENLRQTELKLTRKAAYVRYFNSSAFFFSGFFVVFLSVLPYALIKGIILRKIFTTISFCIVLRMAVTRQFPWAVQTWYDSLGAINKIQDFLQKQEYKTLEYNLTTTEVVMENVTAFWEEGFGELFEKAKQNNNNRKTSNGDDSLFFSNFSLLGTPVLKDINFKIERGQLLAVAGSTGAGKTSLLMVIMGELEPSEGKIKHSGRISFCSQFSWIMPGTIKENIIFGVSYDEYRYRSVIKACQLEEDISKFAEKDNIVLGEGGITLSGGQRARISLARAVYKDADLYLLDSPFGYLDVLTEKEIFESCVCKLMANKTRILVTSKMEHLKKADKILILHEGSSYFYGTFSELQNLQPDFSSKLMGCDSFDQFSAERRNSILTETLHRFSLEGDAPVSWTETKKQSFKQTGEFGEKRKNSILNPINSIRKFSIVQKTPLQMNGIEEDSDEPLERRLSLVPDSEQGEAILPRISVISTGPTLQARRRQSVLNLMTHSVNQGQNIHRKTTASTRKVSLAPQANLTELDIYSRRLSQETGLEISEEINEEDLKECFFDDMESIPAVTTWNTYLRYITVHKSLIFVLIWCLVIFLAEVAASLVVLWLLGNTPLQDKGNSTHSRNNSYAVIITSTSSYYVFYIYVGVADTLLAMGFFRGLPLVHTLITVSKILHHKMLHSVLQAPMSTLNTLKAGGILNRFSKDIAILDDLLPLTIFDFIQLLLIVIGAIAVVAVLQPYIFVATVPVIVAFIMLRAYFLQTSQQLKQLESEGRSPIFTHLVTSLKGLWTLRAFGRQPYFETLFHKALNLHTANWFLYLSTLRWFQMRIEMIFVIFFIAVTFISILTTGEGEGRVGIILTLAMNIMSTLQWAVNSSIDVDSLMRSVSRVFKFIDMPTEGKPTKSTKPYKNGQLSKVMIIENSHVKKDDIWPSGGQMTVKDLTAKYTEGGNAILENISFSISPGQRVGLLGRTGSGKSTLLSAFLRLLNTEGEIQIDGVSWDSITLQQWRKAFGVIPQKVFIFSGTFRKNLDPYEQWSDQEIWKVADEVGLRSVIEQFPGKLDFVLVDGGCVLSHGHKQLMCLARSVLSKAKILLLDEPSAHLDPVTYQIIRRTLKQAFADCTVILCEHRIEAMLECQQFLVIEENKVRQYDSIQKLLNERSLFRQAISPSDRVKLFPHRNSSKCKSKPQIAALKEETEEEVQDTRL

chlorotoxin
effect on CFTR Cl— channels (CFTR Cl— channels): without effect
effect on outwardly rectifying Cl— channels [1]: inhibited
effect on Ca2+-activated Cl— channels [2]: without effect
effect on volume-regulated Cl— channels [3]: without effect
